Test results taken from PMC11284787, “Ligand-Directed Labeling of the Adenosine A1 Receptor in Living Cells” (Journal of Medicinal Chemistry, 2024).

Key:
SNAP-A1AR = test system: T1, SNAP-A1AR; assay: Confocal A1AR internalisation and Rab5 immunolabelling; type: cell-based, human; conditions: 10 μM agonist 2 h; cells prelabeled with 30 nM 11
T1 construct: expressed in transfected cells; host or cells: HEK293T, transient transfection (FuGENE HD)
Excerpt: A natural concern would be the potential for the covalently transferred fluorophore to prevent access of ligands to the orthosteric binding site of the labeled receptor. To address this question, we employed probe 11 to visualize the internalization pathway of the hA1AR by confocal microscopy. […] Cells were immunolabeled with the Anti-Rab5 monoclonal antibody and visualized by treatment with AF488-conjugated secondary antibody (middle frames, green channel). Right-hand frames show merged images of both magenta and green channels. […] The confocal images are representative of images acquired from three independent experiments. […] 37 °C 5% CO2. […] […] at 37 °C, 5% CO2. […] Cells were […] […] Cells were washed 3x 5 min with PBS.

NL-hA1AR = biological target: T2, NL-hA1AR (Homo sapiens, UniProt P30542); assay: NanoBRET dissociation kinetics, NL-hA1AR HEK293T cells; type: binding; conditions: NL-hA1AR HEK293T cells, CA200645 preincubated 2 h
T2 construct: expressed in transfected cells
T2 sequence (P30542 1-326): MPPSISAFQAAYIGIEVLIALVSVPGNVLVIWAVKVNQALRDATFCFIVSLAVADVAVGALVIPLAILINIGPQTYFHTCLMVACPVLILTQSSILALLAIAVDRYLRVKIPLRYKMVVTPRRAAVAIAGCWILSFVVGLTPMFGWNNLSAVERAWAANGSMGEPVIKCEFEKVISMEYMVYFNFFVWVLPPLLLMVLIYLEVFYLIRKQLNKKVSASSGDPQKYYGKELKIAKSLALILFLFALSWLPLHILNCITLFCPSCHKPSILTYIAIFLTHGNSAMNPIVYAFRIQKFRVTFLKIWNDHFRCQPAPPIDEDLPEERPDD
Experimental: Figure 3 Molecular pharmacology and biochemical characterization of 11 and 12. NanoBRET ligand-binding data were measured in HEK293 cells stably expressing the human NL-A1AR (A–C) or rat NL-A1AR (D–F). […] Data were normalized to maximal BRET signals in the absence of unlabeled competing ligands (total binding, TB). (C, F) NanoBRET dissociation kinetics experiments with 11 (SulfoCy5) performed in human and rat NL-A1AR HEK293T cells, respectively. Cells were treated with 250 nM 11 (SulfoCy5, lilac open circles) for 5 h and CA200645 (black open triangles) for 2 h. […] TS-SNAP-A1AR was purified and separated on an SDS-PAGEgel gel, and direct Cy5 fluorescence was visualized using in-gel fluorescence. […]
The small reduction in the BRET signal observed toward the end of the reads could be mostly likely ascribed to substrate (furimazine) consumption. […] To confirm covalent labeling of A1AR by 11 and 12, HEK293G cells stably expressing a Twin-Strep-SNAP-A1AR(TS-SNAP-A1R) construct were treated with 11 or 12 prior to purification, separation by sodium dodecyl sulfate-polyacrylamide gel electrophoresis (SDS-PAGE) and visualization of labeled samples by in-gel fluorescence (Figure 3G). […]
37 °C for kinetic binding experiments. Emissions were read at 420 nm (80 nm bandpass; […]

Row | Compound | localization of SulfoCy5-labeled SNAP-A1AR at the plasma membrane after agonist (SNAP-A1AR) | time for BRET signal to return to baseline after addition of 10 μM DPCPX (NL-hA1AR) [min]
1 | OC[C@H]1O[C@@H](n2cnc3c(NC4CCCC4)nc(Cl)nc32)[C@H](O)[C@@H]1O [CCPA, 2-chloro-N^6-cyclopentyladenosine] | markedly reduced | –
2 | CA200645 [reference compound] | – | ≤ 4.7
